Measured values: patent US9051342B2 (priority 2004, dated 2015)

Assays:
[1] = test system: luciferase with nonsense mutation in a specific codon context (UGAA, UGAC, UAAA or UAAC); assay: Western blot of luciferase protein produced by suppression of the nonsense mutation; format: cell-based, Human embryonic kidney cells (293 cells); details: 293 cells treated with compound, continuation lines list further codon contexts
Text: Nonsense suppression activity in an assay as described above is shown in the Table 3 below, for a construct with a UGA nonsense mutation at position 190, followed by a cytosine nucleotide in-frame, (UGAC); for a construct with UAG nonsense mutation at position 190, followed by an adenine nucleotide in-frame, (UAGA); for a construct with […] nonsense mutation at position 190, followed by an adenine nucleotide in-frame, (UAAA); and a construct with a UAA nonsense mutation at position 190, followed by an cytosine nucleotide in-frame, (UAAC). Also included in Table 3 is a column (“western blot”) indicating whether treatment of cells with the indicated compound suppresses the nonsense mutation in a specific codon context (UGAA, UGAC, UAAA or UAAC) in luciferase and results in production of luciferase protein as determined by a positive signal on a western blot. A positive result in the western blot assay is indicated by a “+” and the nonsense codon and context of the codon that is suppressed.
Another assay of the present invention can evaluate compounds that promote nonsense mutation suppression. The luciferase constructs described above in FIG. 1 are engineered to harbor two epitope tags in the N-terminus of the luciferase protein. Based on luciferase protein production, these constructs qualitatively assess the level of translation-readthrough. The presence of the full-length luciferase protein produced by suppression of the premature termination codon is measured by immunoprecipitation of the suppressed luciferase protein (using an antibody against a His tag) followed by western blotting using an antibody against the second epitope (the Xpress™ epitope; Invitrogen®; Carlsbad, Calif.). These constructs are depicted in FIG. 2.
Cells that harbor the constructs of FIG. 2 show increased full-length protein production when treated with a compound of the present invention. After treatment for 20 hours, cells containing the constructs of FIG. 2 are collected and an antibody recognizing the His epitope is used to immunoprecipitate the luciferase protein. Following immunoprecipitation, western blotting is performed using the antibody to the Xpress™ epitope (Invitrogen®; Carlsbad, Calif.) to detect the truncated luciferase (produced when no nonsense suppression occurs) and to detect the full-length protein (produced by suppression of the nonsense codon). Treatment of cells with a test compound produces full-length protein and not a readthrough protein (See e.g., FIG. 3). The readthrough protein is produced if suppression of the normal termination codon occurs. Compounds of the present invention suppress the premature, i.e. nonsense mutation, but not the normal termination codon in the luciferase mRNA.

Structure (SMILES)	melting point	also measured
O=C(O)c1cccc(-c2ccn(-c3ccc(OC(F)(F)F)cc3)n2)c1 [Compound 66, 3-[1-(4-Trifluoromethoxy-phenyl)-1H-pyrazol-3-yl]-benzoic acid]	171 to 174 °C	western blot: production of luciferase protein; + and the codon context that is suppressed ([1]; UAAC codon context construct): UAAC; western blot: production of luciferase protein; + and the codon context that is suppressed ([1]; UGAC codon context construct): +UGAC;
O=C(O)c1ccc(-c2ccn(-c3ccc(C(F)(F)F)cc3)c2)cc1 [Compound 105, 4-[1-(4-Trifluoromethyl-phenyl)-1H-pyrrol-3-yl]-benzoic acid]	315 to 317 °C	western blot: production of luciferase protein; + and the codon context that is suppressed ([1]; UAAA codon context construct): UAAA; western blot: production of luciferase protein; + and the codon context that is suppressed ([1]; UGAA codon context construct): +; UGAA;; western blot: production of luciferase protein; + and the codon context that is suppressed ([1]; UGAC codon context construct): UGAC;
Cc1ccc(-n2cc(-c3cccc(C(=O)O)c3)cn2)cc1C [Compound 237, 3-[1-(3,4-Dimethyl-phenyl)-1H-pyrazol-4-yl]-benzoic acid]	196 to 197 °C	western blot: production of luciferase protein; + and the codon context that is suppressed [1]: +; UGAC
O=C(O)c1ccc(-n2cc(-c3ccc(F)cc3)nn2)cc1 [Compound 266, 4-[4-(4-Fluoro-phenyl)-[1,2,3]triazol-1-yl]-benzoic acid]	321 to 323 °C	
O=C(O)c1ccc(-n2cc(-c3ccc(Br)cc3F)nn2)cc1 [Compound 267, 4-[4-(4-Bromo-2-fluoro-phenyl)-[1,2,3]triazol-1-yl]-benzoic acid]	327 to 328 °C	
O=C(O)c1ccc(-n2cc(-c3ccc(F)cc3F)nn2)cc1 [Compound 268, 4-[4-(2,4-Difluoro-phenyl)-[1,2,3]triazol-1-yl]-benzoic acid]	312 to 313 °C	
O=C(O)c1ccc(-n2cc(-c3ccc(Cl)cc3)nn2)cc1 [Compound 269, 4-[4-(4-Chloro-phenyl)-[1,2,3]triazol-1-yl]-benzoic acid]	313 to 314 °C	
O=C(O)c1ccc(-n2cc(-c3ccccc3Br)nn2)cc1 [Compound 270, 4-[4-(2-Bromo-phenyl)-[1,2,3]triazol-1-yl]-benzoic acid]	261 to 262 °C	
O=C(O)c1ccc(-n2cc(-c3cccc4ccccc34)nn2)cc1 [Compound 271, 4-(4-Naphthalen-1-yl-[1,2,3]triazol-1-yl)-benzoic acid]	265 to 266 °C	
COc1ccc(-c2cn(-c3ccc(C(=O)O)cc3)nn2)cc1OC [Compound 272, 4-[4-(3,4-Dimethoxy-phenyl)-[1,2,3]triazol-1-yl]-benzoic acid]	253 to 254 °C	

Second part, led by results:

melting point	Structure (SMILES)	also measured
310 to 311 °C	CCOc1ccc(-c2cn(-c3ccc(C(=O)O)cc3)nn2)cc1 [Compound 273, 4-[4-(4-Ethoxy-phenyl)-[1,2,3]triazol-1-yl]-benzoic acid]	
244 to 245 °C	COc1ccc(-c2cn(-c3ccc(C(=O)O)cc3)nn2)c(C)c1 [Compound 274, 4-[4-(4-Methoxy-2-methyl-phenyl)-[1,2,3]triazol-1-yl]-benzoic acid]	
311 to 312 °C	CC(C)c1ccc(-c2cn(-c3ccc(C(=O)O)cc3)nn2)cc1 [Compound 275, 4-[4-(4-Isopropyl-phenyl)-[1,2,3]triazol-1-yl]-benzoic acid]	
263 to 267 °C	CC(C)c1ccc(-n2nc(-c3ccc(C(=O)O)cc3)oc2=O)cc1 [Compound 276, 4-[4-(4-Isopropyl-phenyl)-5-oxo-4,5-dihydro-[1,3,4]oxadiazol-2-yl]-benzoic acid]	
252 to 254 °C	CC(C)c1ccc(-c2nn(-c3ccc(C(=O)O)cc3)c(=O)o2)cc1 [Compound 277, 4-[5-(4-Isopropyl-phenyl)-2-oxo-[1,3,4]oxadiazol-3-yl]-benzoic acid]	
217 to 219 °C	CC(C)c1ccc(-c2nn(Cc3ccc(C(=O)O)cc3)c(=O)o2)cc1 [Compound 278, 4-{[5-(4-isopropylphenyl)-2-oxo-1,3,4-oxadiazol-3(2H)-yl]methyl}benzoic acid]	
218 to 220 °C	CC(C)c1ccc(-c2nn(-c3cccc(C(=O)O)c3)c(=O)o2)cc1 [Compound 279]	
294 to 295 °C (dec.)	N#Cc1cccc(-c2nn(-c3ccc(C(=O)O)cc3)c(=O)o2)c1 [Compound 280, 4-[5-(3-cyanophenyl)-2-oxo-1,3,4-oxadiazol-3(2H)-yl]benzoic acid]	
205 to 208 °C	CC(C)c1ccc(-c2nn(-c3ccc(C(=O)O)cc3)c(=O)s2)cc1 [Compound 281, 4-[5-(4-isopropylphenyl)-2-oxo-1,3,4-thiadiazol-3(2H)-yl]benzoic acid]	
176 to 179 °C	CC(C)c1ccc(-c2nn(-c3ccc(C(=O)O)cc3)c(=S)s2)cc1 [Compound 282, 4-[5-(4-Isopropyl-phenyl)-2-thioxo-[1,3,4]thiadiazol-3-yl]-benzoic acid]	
215 to 217 °C	CC(C)c1ccc(-c2nn(-c3cccc(C(=O)O)c3)c(=S)o2)cc1 [Compound 283, 3-[5-(4-Isopropyl-phenyl)-2-thioxo-[1,3,4]oxadiazol-3-yl]-benzoic acid]	
220 to 221 °C	CC(C)c1ccc(-c2nn(-c3cccc(C(=O)O)c3)c(=O)s2)cc1 [Compound 284, 3-[5-(4-Isopropyl-phenyl)-2-oxo-[1,3,4]thiadiazol-3-yl]-benzoic acid]	
239 to 240 °C	CC(C)c1ccc(-c2nn(-c3ccc(C(=O)O)cc3)c(=S)o2)cc1 [Compound 285, 4-[5-(4-Isopropyl-phenyl)-2-thioxo-[1,3,4]oxadiazol-3-yl]-benzoic acid]	
244 to 245 °C	CC(C)c1ccc(-c2ccn(-c3cccc(C(=O)O)c3)c2)cc1 [Compound 287]	
